SMILES strings stand for the structures.

The values below come from US11612580B2, “Compositions for inhibiting 3′ repair exonuclease 2 and methods of screening for such compositions” (THE BOARD OF REGENTS OF THE UNIVERSITY OF TEXAS SYSTEM, priority 2017, dated 2023).

Experiment [1] relates to msh2^−/− cells. In words: puro(A)10 polymerase slippage assay, puromycin resistant colonies. It counts as cell-based, mouse. To be noted: msh2^−/− cells with puro(A)10 reporter; 10 μM TREX2 inhibitor with puromycin; colonies counted about day 10; DMSO versus compounds p<0.02 (FIGS. 8B, 8C).
In experiment [2] the test system is mouse embryonic stem (ES) cells. In words: reduction of mutations in mouse embryonic stem (ES) cells. It counts as cell-based. The note with it: hits from Chembridge Diverset screen. The source says: Assays as described here were used to screen a Chembridge Diverset library (30,000 compounds). […] These small molecules are: 4-benzoyl-2-methyphenyl (2-nitrophenoxy) acetate; N-benzyl-2-([bis(furan-2-yl)-1,2,4-triazin-3-yl] sulfanyl) acetamide; 6-(benzylcarbamoyl)-1-methycyclohex-3-ene-1-carboxylic acid; 8-(phenylamino)naphthalene-1-sulfonic acid; and benzyl 6-(furan-2-yl)-3-methyl-4-oxo-4,5,6,7-tetrahydro-1H-indole-2-carboxylate. […] TX2Is appear to be nontoxic to cells and TREX2-deletion was asymptomatic for >50% of life span.

In the case of `Cc1cc(C(=O)c2ccccc2)ccc1OC(=O)COc1ccccc1[N+](=O)[O-]` [Compound 1, 4-benzoyl-2-methyphenyl (2-nitrophenoxy) acetate], the “spontaneous polymerase slippage (fraction of puromycin resistant cells)” value in experiment [1] is recorded as “reduce spontaneous polymerase slippage”. Further, the “mutations in mouse embryonic stem (ES) cells” value (“mutations” for short) in experiment [2] was “reduce a range of mutations”.

For `O=S(=O)(O)c1cccc2cccc(Nc3ccccc3)c12` [Compound 6, 8-(phenylamino)naphthalene-1-sulfonic acid], the “spontaneous polymerase slippage (fraction of puromycin resistant cells)” value in experiment [1] is recorded as “reduce spontaneous polymerase slippage”. Further, the “mutations” value in experiment [2] is given as “reduce a range of mutations”.

Consider `O=C(CSc1nnc(-c2ccco2)c(-c2ccco2)n1)NCc1ccccc1` [Compound 10, N-benzyl-2-([bis(furan-2-yl)-1,2,4-triazin-3-yl]sulfanyl) acetamide], for which the “spontaneous polymerase slippage (fraction of puromycin resistant cells)” value in experiment [1] is recorded as “reduce spontaneous polymerase slippage”. For the same compound, the “mutations” value in experiment [2] is recorded as “reduce a range of mutations”.

As to `CC1(C(=O)O)CC=CCC1C(=O)NCc1ccccc1` (stereo not drawn) [Compound 11, 6-(benzylcarbamoyl)-1-methycyclohex-3-ene-1-carboxylic acid], the “spontaneous polymerase slippage (fraction of puromycin resistant cells)” value in experiment [1] is recorded as “reduce spontaneous polymerase slippage”. Further, in experiment [2], the “mutations” value is given as “reduce a range of mutations”.

With `Cc1c(C(=O)OCc2ccccc2)[nH]c2c1C(=O)CC(c1ccco1)C2` (stereo not drawn) [benzyl 6-(furan-2-yl)-3-methyl-4-oxo-4,5,6,7-tetrahydro-1H-indole-2-carboxylate], in experiment [2], the “mutations” value is “reduce a range of mutations”.
